Results published in patent publication US7915050B2, “Regulatory genes for plant differentiation and growth, and use of the same” (National University Corporation Nagoya University, priority 2005, dated 2011).
Where two headings read alike, the source gives them in different places.

Key:
GID1 [1] = biological target: T1, GID1 (Oryza sativa subsp. japonica, UniProt Q6L545); assay: Competition of various GAs in the binding of the 3H-GA4 derivative to GID1 protein; set-up: species or system rice; details: for IC50: competition with tritiated GA4 derivative for binding to recombinant GID1, read-out: IC50 (concentration required for 50% inhibition); for Rel % (relative value): relative competition, GA4 given as 100
T1 construct: GST (tag of vector pGEX-4T) (N); made in house
Description: (§1) In the gibberellin-binding assay, [1,2,16,17-^3H4]16,17-dihydro-GA4 was used as a labeled GA4. In vitro GA-binding assays were carried out using previous methods with some modifications (Nakajima, M. et al., Biochem. Biophys. Res. Comm. 241, 782-786 (1997)). The purified recombinant GID1 protein (400 pmol) was dissolved in 300 μl of binding buffer [20 mM Tris-HCl (pH 7.6), 5 mM 2-mercaptoethanol, and 0.1 M NaCl], and incubated with 100 μl of ^3H4-16,17-dihydroGA4 (6 pmol) for two hours at 25° C., either in the absence of non-labeled GA4 (total binding) or in the presence of 833-fold excess non-labeled GA4 (total non-specific binding). Then, 0.1 ml of the reaction mixture was loaded onto a NAP-5 column (Amersham Biosciences, Piscataway, N.J.). The eluate of the binding buffer (0.6 ml) was discarded, the subsequent eluate (0.2 ml) was collected, and the radioactivity was measured. The specific binding activity, reflecting the number of displaceable GA binding sites, was calculated by subtracting the amount of nonspecific binding from the amount of total binding. The same as above can also be carried out for other GAs.
Thus, it was postulated that, like GID2, GID1 is involved in the degradation of SLR1, or that GID1 functions upstream of SLR1 in GA signaling. […] Based on this phenotypic characteristic of gid1, it was predicted that GID1 was involved in GA perception. To verify this possibility, the interactions between GID1 and radioisotope-labeled GA was directly examined using non-equilibrium gel filtration (Nakajima, M. et al., Biochem. Biophys. Res. Comm. 241, 782-786 (1997)). […] Next, ligand specificity of GID1 was tested by using competition between the tritiated GA4 derivative and various GAs. The concentration of each GA that is required for a 50% inhibition (IC50) of the binding of the tritiated GA4 derivative to GID1 is shown in Table 1. […] The IC50 value for each of these GAs was well consistent with their physiological activity.

AtGID1a = biological target: T2, AtGID1a (Arabidopsis thaliana, UniProt Q9MAA7); assay: Competitive ability of GA in AtGID1-GA binding (AtGID1a); details: for IC50: tracer 15 nM, mean of at least two measurements
T2 construct: made in house; host or cells: E. coli
T2 sequence (Q9MAA7 1-345): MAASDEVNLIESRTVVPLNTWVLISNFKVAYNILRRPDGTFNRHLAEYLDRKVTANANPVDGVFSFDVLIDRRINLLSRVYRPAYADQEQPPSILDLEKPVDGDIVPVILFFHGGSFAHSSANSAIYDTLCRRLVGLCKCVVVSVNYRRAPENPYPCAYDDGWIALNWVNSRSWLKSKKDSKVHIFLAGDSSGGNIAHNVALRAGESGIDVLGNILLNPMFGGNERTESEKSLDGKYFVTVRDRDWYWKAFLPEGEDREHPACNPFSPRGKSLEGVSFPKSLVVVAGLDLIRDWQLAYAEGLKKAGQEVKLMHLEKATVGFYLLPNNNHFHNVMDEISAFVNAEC
Description: as §1
(§2) Specifically, the coding region of the AtGID1 gene was amplified by PCR using specific primers designed based on the full-length cDNA sequence of the AtGID1 gene and having appropriate restriction sites at each end. After confirmation by sequence analysis, each cDNA fragment was ligated into pET32a vector (Novagen/Merck Biosciences, Madison, Wis., USA) or pGEX-4T-2 vector (Amersham Biosciences, Piscataway, N.J., USA; currently, a part of GE Healthcare). The production of recombinant proteins was confirmed by SDS-PAGE; vector cassettes were used as negative controls. GA binding assays were carried out similarly as described above using [1,2,16,17-^3H4]-16,17-dihydro-GA4 (4.55 TBq/mmol), which was custom-made by DuPont/NEN (Boston, Mass., USA). Non-labeled GA4 (1.25 mM) was used to measure non-specific binding. Saturation experiments for the kinetic analysis were carried out using ten concentrations of 16,17-dihydro-GA4 within the range of 25 to 1,500 nM. Competition assays were performed using [1,2,16,17-^3H4]-16,17-dihydro-GA4 at 15 nM and five concentrations of the non-labeled competitor. Recombinant RGA and GAI proteins were prepared using pET32a by a previously described method.
(§3) The ligand selectivity of each AtGID1 was examined by observing the competitive inhibition, by the addition of GA to the assay mixtures, of the binding between the recombinant proteins and tritiated 16,17-dihydro-GA4 (Table 2). The ligand selectivity was evaluated using the concentration of GA that inhibits 50% of the tracer (15 nM) binding (IC50 value).

AtGID1b = biological target: T3, AtGID1b (Arabidopsis thaliana, UniProt Q9LYC1); assay: Competitive ability of GA in AtGID1-GA binding (AtGID1b); details: for IC50: tracer 15 nM, mean of at least two measurements
T3 construct: made in house; host or cells: E. coli
T3 sequence (Q9LYC1 1-358): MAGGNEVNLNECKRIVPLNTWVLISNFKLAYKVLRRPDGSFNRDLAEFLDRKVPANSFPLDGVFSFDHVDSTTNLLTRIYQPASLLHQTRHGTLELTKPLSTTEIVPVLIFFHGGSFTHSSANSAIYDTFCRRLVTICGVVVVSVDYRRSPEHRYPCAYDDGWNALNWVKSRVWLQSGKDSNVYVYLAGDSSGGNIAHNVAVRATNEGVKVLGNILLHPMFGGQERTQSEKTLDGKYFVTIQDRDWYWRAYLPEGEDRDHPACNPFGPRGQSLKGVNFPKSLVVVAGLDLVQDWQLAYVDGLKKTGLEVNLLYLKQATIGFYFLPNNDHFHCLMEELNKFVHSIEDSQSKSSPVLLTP
Description: as §1, §2, §3

AtGID1c = biological target: T4, AtGID1c (Arabidopsis thaliana, UniProt Q940G6); assay: Competitive ability of GA in AtGID1-GA binding (AtGID1c); details: for IC50: tracer 15 nM, mean of at least two measurements
T4 construct: made in house; host or cells: E. coli
T4 sequence (Q940G6 1-344): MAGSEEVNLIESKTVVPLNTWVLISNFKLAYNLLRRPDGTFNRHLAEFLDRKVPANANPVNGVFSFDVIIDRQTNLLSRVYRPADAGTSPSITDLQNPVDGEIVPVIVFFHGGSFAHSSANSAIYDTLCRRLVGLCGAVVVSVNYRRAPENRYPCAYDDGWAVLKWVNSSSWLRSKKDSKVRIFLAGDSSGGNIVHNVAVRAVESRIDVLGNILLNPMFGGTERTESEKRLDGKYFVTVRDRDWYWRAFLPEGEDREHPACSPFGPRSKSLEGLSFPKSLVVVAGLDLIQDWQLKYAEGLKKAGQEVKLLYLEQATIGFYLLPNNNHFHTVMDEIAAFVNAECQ
Description: as §1, §2, §3

GID1 [2] = biological target: T1, GID1; assay: Saturation/Scatchard and association/dissociation analysis of GA binding to recombinant GID1; set-up: species or system rice
Description: Panel a) depicts the saturability for the GA binding of GID1. […] Bar represents the standard deviation (n=3). Panel b) depicts the results of a Scatchard plot for the data of binding shown in a. The Kd value was calculated (correlation coefficient R^2=0.96) from t three independent experimental results. Panel c) depicts the ^3H-GA association/dissociation rate to GID1. […] Bar represents the standard deviation (n=3). […] Upper panel, none of three recombinant proteins of mutant GID1s (GID1-1, 1-2, and 1-3) corresponding to the three gid1 alleles interacted with GA4. […] Bar represents the standard deviation (n=3). Bottom panel, Coomassie brilliant blue stain of the recombinant proteins used in this experiment. Dot represents GID or tag proteins in the SDS-PAGE profile. In this experiment, almost equal amounts of proteins were used for each (80 pmol). Panel e) depicts the gross morphologies of a GID1-overexpressing plant (Actin1 promoter-GID1, right) and wild type plant (control, left) three months after seeding. Bar=50 cm. f) dose-dependent GA response in the elongation of the second leaf sheath of GID1overexpressing plant (closed triangle) and wild type (closed circle). Bar represents the standard deviation (n=5).
In the gibberellin-binding assay, [1,2,16,17-^3H4]16,17-dihydro-GA4 was used as a labeled GA4. In vitro GA-binding assays were carried out using previous methods with some modifications (Nakajima, M. et al., Biochem. Biophys. Res. Comm. 241, 782-786 (1997)). […] The eluate of the binding buffer (0.6 ml) was discarded, the subsequent eluate (0.2 ml) was collected, and the radioactivity was measured. The specific binding activity, reflecting the number of displaceable GA binding sites, was calculated by subtracting the amount of nonspecific binding from the amount of total binding. […]
Next, the kinetics of the binding of GID1 to GA was analyzed. To calculate the Kd value of GID1 to GA, the saturability of GA binding was measured using various concentrations of GA4 derivative (FIG. 4a). […]

T1 sequence (Q6L545 whole entry): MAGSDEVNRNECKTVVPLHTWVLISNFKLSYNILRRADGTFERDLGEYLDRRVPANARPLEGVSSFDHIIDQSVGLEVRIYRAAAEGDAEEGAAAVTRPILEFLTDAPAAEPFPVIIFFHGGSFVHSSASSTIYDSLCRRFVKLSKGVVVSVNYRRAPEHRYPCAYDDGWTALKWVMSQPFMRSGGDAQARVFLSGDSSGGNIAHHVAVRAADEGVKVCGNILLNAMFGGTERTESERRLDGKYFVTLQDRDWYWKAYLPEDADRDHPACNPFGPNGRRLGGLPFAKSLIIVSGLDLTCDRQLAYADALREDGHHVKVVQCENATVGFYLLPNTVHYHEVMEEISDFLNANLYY

Substance	IC50 (GID1 [1])	Rel % (relative value) (GID1 [1])	relative value, taking the value for GA4 as 100 (AtGID1a)	IC50 (AtGID1a)	relative value, taking the value for GA4 as 100 (AtGID1b)	IC50 (AtGID1b)	relative value, taking the value for GA4 as 100 (AtGID1c)	IC50 (AtGID1c)	half-time required for association/dissociation (GID1 [2])	half-time required for association/dissociation (GID1 [2]; listed as GA4 derivative)
methyl ester of GA4 [GA4-Me]	30 µM	(0.6) %	(0.1) %	300 µM	(0.3) %	9 µM	(0.3) %	90 µM	–	–
[1,2,16,17-^3H4]16,17-dihydro-GA4 [^3H4-16,17-dihydroGA4]	–	–	–	–	–	–	–	–	within several minutes	several minutes or less
3-epi-GA4	> 200 µM	(<0.1) %	(<0.1) %	> 300 µM	(<0.1) %	100 µM	(<0.1) %	> 300 µM	–	–
